Reference: article PMC11258623 (ESMO Open, 2024)

How the values were obtained:
CYP3A4 = conditions: overlapping elimination mechanisms; cited from earlier work
[1] = system: patients with advanced solid tumors; type: in vivo, human
[2] = Paclitaxel plasma pharmacokinetics; type: in vivo, human; conditions: paclitaxel 60 mg/m^2; with daily oral TAK-659
[3] = TAK-659 plasma pharmacokinetics; type: in vivo, human; conditions: for AUC0-t increase from day 1 to day 15 / clearance decrease from day 1 to day 15: with paclitaxel
[4] = system: patients with acute myeloid leukemia (AML); conditions: TAK-659 monotherapy, doses of up to 160 mg daily; cited from earlier work

| SMILES | substrate for CYP3A4, a major drug metabolizing enzyme (CYP3A4) | patients with paclitaxel dose reduced ([1]; Nine of 49 patients, given with TAK-659) | increase in exposure (AUC), cycle 1 day 15 compared with cycle 1 day 1 [2] | reduction in clearance, cycle 1 day 15 compared with cycle 1 day 1 [2] | increase in terminal elimination half-life from day 1 to day 15 ([3]; 60-mg dosing cohort, not statistically significant (P = 0.1650)) | AUC0-t increase from day 1 to day 15 ([3]; 60-mg dosing group) | clearance decrease from day 1 to day 15 ([3]; 60-mg dosing group) | AUC0-t increase from day 1 to day 15 ([3]; 80-mg dosing group) | clearance decrease from day 1 to day 15 ([3]; 80-mg dosing group) | AUC0-t increase from day 1 to day 15 ([3]; 100-mg dosing group) | clearance decrease from day 1 to day 15 ([3]; 100-mg dosing group) | patients with dose of TAK-659 reduced ([1]; Six of 49 patients, given with paclitaxel) | recommended phase II dose of TAK-659 ([1]; oral, combined with paclitaxel) | patients who needed a second dose reduction of TAK-659 ([1]; two of 49 patients, given with paclitaxel) | MTD [4] |
| --- | --- | --- | --- | --- | --- | --- | --- | --- | --- | --- | --- | --- | --- | --- | --- |
| CC(=O)O[C@H]1C(=O)[C@@]2(C)[C@H]([C@H](OC(=O)c3ccccc3)[C@]3(O)C[C@H](OC(=O)[C@H](O)[C@@H](NC(=O)c4ccccc4)c4ccccc4)C(C)=C1C3(C)C)[C@]1(OC(C)=O)CO[C@@H]1C[C@@H]2O [Paclitaxel, paclitaxel, reference compound] | substrates | 18% | ~28% | ~20% |  |  |  |  |  |  |  |  |  |  |  |
| Cn1cc(-c2nc(N[C@@H]3CCCC[C@@H]3N)c(F)c3c2C(=O)NC3)cn1 [TAK-659, mivavotinib] | substrates |  |  |  | 41% | 40% | 36% | 66% | 31% | 91% | 46% | 12% | 80 mg daily | 4% | not reached |
